Earlier results in patent publication US20140039057A1, “Compositions” (Reckitt Benckiser Healthcare (UK) Limited, priority 2008, published 2014).

Conditions: phase II and phase III clinical studies

SMILES: CC(C(=O)O)c1ccc(-c2ccccc2)c(F)c1 (stereo not shown) [Flurbiprofen]
- efficacy in the treatment of sore throat: efficacious
